Reference: patent US6369225B1, “Compounds having activity as inhibitors of cytochrome P450RAI” (Allergan Sales, Inc., priority 2000, dated 2002)

Legend:
skin of hairless mice = test: topical skin irritation test in hairless mice; format: in vivo, mouse; settings: topical in acetone, once daily days 1 through 5, mean ±SD, range 0-21
Excerpt: Mice were housed individually throughout the dosing period.
Doses are disclosed as nmol/25 g.
The grading scale used is as follows:
Values can range from 0-9.
Values can range from 0-8.

P450RAI-1 = molecular target: T1, P450RAI-1 (Homo sapiens, UniProt O43174); test: P450RAI-1 cell-based inhibitor assay; settings: P450RAI-1 stably transfected HeLa cells, [3H]-RA metabolism, 3 hours at 37° C.; read-out: P450RAI INHIBITION DATA INTACT HELA IC50
T1 construct: expressed in transfected cells; host or cells: HeLa cells, stably transfected, hygromycin selection
T1 sequence (O43174 1-497): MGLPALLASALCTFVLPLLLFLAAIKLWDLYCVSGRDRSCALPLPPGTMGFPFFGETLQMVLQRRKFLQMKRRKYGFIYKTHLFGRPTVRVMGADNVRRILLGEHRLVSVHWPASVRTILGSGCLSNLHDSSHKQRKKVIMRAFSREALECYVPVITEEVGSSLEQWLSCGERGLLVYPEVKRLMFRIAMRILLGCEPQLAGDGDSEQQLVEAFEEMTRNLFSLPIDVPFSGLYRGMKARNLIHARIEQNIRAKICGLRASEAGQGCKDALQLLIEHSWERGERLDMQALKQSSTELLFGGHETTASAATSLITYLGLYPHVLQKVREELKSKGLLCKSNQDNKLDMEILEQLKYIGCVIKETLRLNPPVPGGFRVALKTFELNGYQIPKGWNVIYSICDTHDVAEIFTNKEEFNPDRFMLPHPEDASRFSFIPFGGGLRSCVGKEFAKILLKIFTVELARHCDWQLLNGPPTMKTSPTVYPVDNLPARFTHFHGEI
Experimental: P450RAI-1 stably transfected HeLa cells are maintained in […] tissue culture dishes in Modified Eagle's Medium (MEM) containing 10% Fetal Bovine Serum (FBS) and 100 μg/ml hygromycin. Exponentially growing cells are harvested by incubating in trypsin. Cells are then washed with 1× Phosphate Buffered Saline (PBS) and plated in a 48-well plate at 5×10^5 cells in 0.2 ml MEM medium containing 10% FBS and 0.05 μCi[^3H]-RA in the presence or absence of increasing concentrations of the test compounds. The compounds are diluted in 100% DMSO and then added in triplicate wells at either 10, 1 or 0.1 μM final concentration. As a positive control for RA metabolism inhibition, cells are also incubated with ketoconazole at 100, 10 and 1 μM. Cell are incubated for 3 hours at 37° C. […] The water soluble radioactivity is quantified using a β-scintillation counter. IC50 values represent the concentration of inhibitor required to inhibit all-trans-RA metabolism by 50 percent and are derived manually from log-transformed data.

Row | Structure (SMILES) | Cutaneous Toxicity Score (Blackjack Score) (skin of hairless mice; 100 nmole (nmol/25 g)) | Cutaneous Toxicity Score (Blackjack Score) (skin of hairless mice; 300 nmole (nmol/25 g)) | Cutaneous Toxicity Score (Blackjack Score) (skin of hairless mice; 1000 nmole (nmol/25 g)) | IC50 (P450RAI-1) [nM]
1 | CC1(C)CC2(CC2)Oc2c(C3CC3)cc(C#Cc3ccc(CC(=O)O)c(F)c3)cc21 [Compound 50, 4-[(8-Cyclopropyl-3,4-dihydro-4,4-dimethylspiro[2H-1-benzopyran-2,1′-cyclopropane]-6-yl)ethynyl]-2-fluoro-benzeneacetic Acid] | 1 ± 0 | 3 ± 2 | 8 ± 2 | 14
2 | CC1(C)CC2(CC2)Oc2c(C3CC3)cc(C#Cc3ccc(CC(=O)O)cc3)cc21 [Compound 48, Benzeneacetic Acid, 4-[(8-cyclopropyl-3,4-dihydro-4,4-dimethylspiro[2H-1-benzopyran-2,1′-cyclopropane]-6-yl)ethynyl]-] | 1 ± 1 | 3 ± 1 | 7 ± 2 | 30
3 | CC1(C)CC2(CC2)Oc2c(C3CC3)cc(C(=O)Oc3ccc(CC(=O)O)cc3)cc21 [Compound 58, Spiro[2H-1-benzopyran-2,1′-cyclopropane]-6-carboxylic Acid, 8-cyclopropyl-3,4-dihydro-4,4-dimethyl-, 4-(carboxymethyl)phenyl Ester] | 0 ± 0 | 0 ± 0 | 0 ± 0 | 180
4 | CN(C1CC1)C1CCC(C)(C)c2cc(C#Cc3ccc(CC(=O)O)c(F)c3)ccc21 (centres unmarked) [Compound 18, [4-(5-(Cyclopropyl-methyl-amino)-8,8-dimethyl-5,6,7,8-tetrahydro-naphthalene-2-yl-ethynyl)-2-fluoro-phenyl]-acetic Acid] | 0 ± 0 | 5 ± 2 | 10 ± 2 | 1100
5 | CC1(C)CCC(n2ccnc2)c2ccc(C#Cc3ccc(CC(=O)O)cc3)cc21 (centres unmarked) [Compound 137, [4-(5-Imidazol-1-yl-8,8-dimethyl-5,6,7,8-tetrahydro-naphthalen-2-yl-ethynyl)-phenyl]-acetic Acid] | 1 ± 1 | 1 ± 1 | 5 ± 2 | 100
